Reference: patent publication US12569577B2, “PSMA-targeting imaging agents” (The Cleveland Clinic Foundation, priority 2019, dated 2026)
Read-outs that look alike come from different tables or passages of the source. *1 amine or outer side, *2 acyl side, *3 side chain or, on linkers, in order; H or OH if unused. Where a SMILES comes first, the peptide text is derived from it. The star is where a group is joined. DOTA = O=C(O)CN1CCN(CC(=O)O)CCN(CC(=O)*)CCN(CC(=O)O)CC1; γGlu = O=C(O)[CH](CCC(=O)[*:2])N[*:1]; CO = O=C([*:1])[*:2]; Ahx = NCCCCCC(=O)O

What was measured:
PSMA = target: T1, PSMA (Homo sapiens, UniProt Q04609); assay: Competitive binding assay: NAAG hydrolysis by PC3-PIP membranes, Amplex Red glutamic acid readout; assay type: biochemical; details: for EC50: PC3-PIP membranes
T1 construct: expressed in transfected cells; host or cells: PC3-PIP cells (washed membrane preparation after freeze/thaw)
T1 sequence (Q04609 whole entry): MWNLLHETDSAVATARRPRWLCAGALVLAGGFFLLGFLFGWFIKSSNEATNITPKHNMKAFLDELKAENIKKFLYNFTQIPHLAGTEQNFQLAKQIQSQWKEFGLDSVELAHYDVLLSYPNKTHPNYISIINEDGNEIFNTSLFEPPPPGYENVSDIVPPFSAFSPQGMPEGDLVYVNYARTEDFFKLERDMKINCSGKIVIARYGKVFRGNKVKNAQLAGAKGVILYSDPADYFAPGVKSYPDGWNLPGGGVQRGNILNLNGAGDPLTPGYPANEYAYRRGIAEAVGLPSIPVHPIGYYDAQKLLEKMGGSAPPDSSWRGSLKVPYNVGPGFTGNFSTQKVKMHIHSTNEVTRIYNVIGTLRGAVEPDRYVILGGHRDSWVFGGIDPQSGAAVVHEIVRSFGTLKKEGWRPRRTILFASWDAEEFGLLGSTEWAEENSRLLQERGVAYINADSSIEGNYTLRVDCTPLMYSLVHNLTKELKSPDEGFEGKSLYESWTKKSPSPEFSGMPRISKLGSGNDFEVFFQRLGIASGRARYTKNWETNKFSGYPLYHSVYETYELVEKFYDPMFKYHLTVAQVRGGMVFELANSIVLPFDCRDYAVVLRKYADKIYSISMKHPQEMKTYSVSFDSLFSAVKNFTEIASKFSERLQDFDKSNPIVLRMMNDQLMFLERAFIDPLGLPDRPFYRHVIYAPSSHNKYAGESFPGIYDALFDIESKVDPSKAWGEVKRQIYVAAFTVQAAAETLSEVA
Protocol: PC3-PIP PSMA-expressing cells were grown to confluency, harvested in 50 mM Tris-HCl (pH 7.5) and subjected to four freeze/thaw cycles. Cell membranes were washed three times by centrifugation at 12,000g or higher. The cell membranes were diluted to 50 mg/mL in 50 mM Tris-HCl (pH 7.5) (based on wet weight of the solid after centrifugation). Binding assays were conducted in 96 well plates. Phase 1 of the assay used wells containing 100 microliters 50 mM Tris-HCl (pH 7.5) with 4 microns NAAG and 10 microns of PC3-PIP membrane, to which differing concentrations of Compound 1 was added. The 96 well plate was incubated at 37° C. for 2 h. The glutamic acid concentration was measured with the Amplex Red glutamic acid assay kit (Invitrogen-Molecular Probes) using a fluorescent plate reader (530 nm excitation, 590 nm emission). The resulting fluorescence signals were normalized, and normalized fluorescence plotted against the concentration of ligand (log (nm)) (FIG. 1). EC50 was determined according to Eq. 1 (below). [formula]

[1] = 68Ga-labelled; Rousseau et al.; cited from earlier work
prostate cancer lesions = details: cited from earlier work

## NC(=O)C(CCCCNC(=O)CN1CCN(CC(=O)O)CCN(CC(=O)O)CCN(CC(=O)O)CC1)NC(=O)C(Cc1ccc(O)cc1)NC(=O)C(CCC(=O)O)NC(=O)C(CCC(=O)O)NC(=O)C(CCC(=O)O)NC(=O)CCCCCNC(=O)CCC(NC(=O)NC(CCC(=O)O)C(=O)O)C(=O)O (stereo not shown) [Compound 1] ({Glu-CO-γGlu-Ahx}-EEEYK(DOTA)-NH2; configuration not given here)
PSMA; NAAG substrate, 37° C. 2 h, FIG. 1
  EC50: 0.287 ± 0.064 nM
PSMA; calculated from the competitive binding assay, read-out: estimated Ki to PSMA
  Ki: < 0.3 nM

## O=C(O)CCC(NC(=O)NC(CCCCNC(=O)CCC(NC(=O)CCC(NC(=O)C(Cc1ccc(O)cc1)NC(=O)CN1CCN(CC(=O)O)CCN(CC(=O)O)CCN(CC(=O)O)CC1)C(=O)O)C(=O)O)C(=O)O)C(=O)O (stereo not shown) [Compound 14, E′K-E!E!Y-DOTA]
PSMA; FIG. 2 and FIG. 3
  EC50: 0.39 ± 0.02 nM

## O=C(O)CCc1ccc(O)c(CN(CCN(CC(=O)O)Cc2cc(CCC(=O)NCCCCCC(=O)NCCCC[C@H](NC(=O)N[C@@H](CCC(=O)O)C(=O)O)C(=O)O)ccc2O)CC(=O)O)c1 [PSMA 11, Glu-NH—CO—NH-Lys (Ahx)-[^68Ga(HBEDCC], metal not drawn]
[1]
  Biodistribution Blood: 0.31% ± 0.08%
  Biodistribution Kidney: 182% ± 33%
  Biodistribution Liver: 0.44% ± 0.13%
  Biodistribution Muscle: 0.54% ± 0.14%
  Biodistribution Salivary Gland: 10.00% ± 2.52%
  Biodistribution Spleen: 22.2% ± 7.91%
  Biodistribution Tumor: 8.67% ± 1.97%
Prostate cancer lesions; PSA <2.2 ng/ml
  (per patient) lesion detection rate: 60%
Prostate cancer lesions; PSA >2.2 ng/ml
  (per patient) lesion detection rate: 100%

## O=C(O)CCC(NC(=O)NC(CCCCNC(=O)CCC(NC(=O)CCC(NC(=O)c1ccc(F)nc1)C(=O)O)C(=O)O)C(=O)O)C(=O)O (stereo not shown) [Compound 11]
PSMA; FIG. 2 and FIG. 3
  EC50: ~0.1 nM
